The values that follow come from US20220267479A1, “POLYIODIDE BINDING COMPOUNDS AND METHODS OF USE THEREOF” (North Carolina State University, priority 2019, published 2022).

Holding throughout (type): biochemical
For assay [1], the system named is β-glucosidase from almonds. The assay can be described thus: Indigogenic reaction with β-glucosidase from almonds. From the text:
With diverse glucosyl-indoxyl compounds in hand, we carried out a set of studies to examine indigoid-dye formation upon enzymatic cleavage of the glucosyl unit under physiological conditions. Altogether, 14 new (15, 16, 19-27, 30, 33, 41) and 2 known (1, 42) synthetic indoxyl-glucosides (lacking acetyl protecting groups) were examined in an effort to identify suitable combinations of substituents to support both bioconjugation and indigoid dye formation. In initial studies, β-glucosidase from almonds was employed to trigger indigoid dye formation (Table 1). Thus, a mixture of this enzyme (1 unit/mL) and an indoxyl β-glucoside (0.1 μmol, 1 mM) in acetate buffer (pH 5, containing 5% DMF) was incubated at 37° C. for 16-19 h. All indigoid dye was dissolved in each case for quantitative evaluation.
Reactions with β-glucosidase from almonds. An indoxyl compound in DMF (5 μL, 20 mM) and β-glucosidase from almonds in H2O (10 μL, 10 units/mL) were mixed with acetate buffer (85 μL, 50 mM, pH 5.0). The reaction mixture was incubated at 37° C. for 16-19 h and then allowed to cool to room temperature. DMF (300 μL for the reactions of 15, 16, 1, 19, 22, and 25; or 900 μL for the reactions of 42, 20, 21, 23, 24, 26, 27, 30, and 31, respectively) was added to dissolve any indigoid precipitate. The resulting solution was analyzed by absorption spectroscopy.

For another assay, the system named is rat liver homogenate. In words: Indigoid-dye formation in rat liver homogenate. As to conditions: indoxyl 1 mM, 5% DMF, 37° C., 24 h; ε = 1.27 × 10^4 M^-1 cm^-1. On the procedure: Finally, indigoid-dye formation was carried out in rat liver homogenate (Table 1, rightmost column).
Reactions in rat liver homogenate. An indoxyl compound in DMF (5 μL, 20 mM) was mixed with rat liver homogenate (95 μL). The reaction mixture was incubated at 37° C. for 24 h. After allowing to cool to room temperature, the reaction mixture was diluted with DMF (900 μL). The mixture was heated at 70° C. for 2 min and then centrifuged for 2 min. The supernatant was separated from any precipitate. This extraction procedure was repeated two or three times with DMF (100-500 μL). The combined supernatant (1500-1800 μL) was analyzed by absorption spectroscopy.

Assay [2] concerns the target T1, β-glucosidase from Agrobacterium (Agrobacterium sp., UniProt P12614).
T1 construct: purchased Megazyme; host or cells: recombinant
T1 sequence (P12614 1-459): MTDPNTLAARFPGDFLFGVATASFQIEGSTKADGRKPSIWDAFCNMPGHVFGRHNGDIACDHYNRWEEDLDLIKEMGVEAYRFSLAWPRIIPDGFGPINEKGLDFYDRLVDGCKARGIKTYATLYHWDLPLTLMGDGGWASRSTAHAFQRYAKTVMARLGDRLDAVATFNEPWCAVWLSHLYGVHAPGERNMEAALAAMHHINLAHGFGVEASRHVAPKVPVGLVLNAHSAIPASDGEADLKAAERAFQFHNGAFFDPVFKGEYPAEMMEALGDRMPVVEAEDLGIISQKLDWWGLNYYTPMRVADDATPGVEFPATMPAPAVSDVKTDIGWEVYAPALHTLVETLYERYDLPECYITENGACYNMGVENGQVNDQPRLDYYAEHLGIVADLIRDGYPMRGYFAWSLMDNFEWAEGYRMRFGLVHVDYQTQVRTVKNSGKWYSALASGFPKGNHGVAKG
In words: Indigogenic reaction with β-glucosidase from Agrobacterium. The protocol: Next, the β-glucosidase from Agrobacterium sp. was investigated as the trigger enzyme for indigoid dye formation. […]
Reactions with β-glucosidase from Agrobacterium. An indoxyl compound in DMF (2 μL, 5 mM) and β-glucosidase from Agrobacterium in 10 mM phosphate buffer [2 μL, 10 μM, pH 7.0, containing 50 mM NaCl and 0.6 M (NH4)2SO4] were mixed with 50 mM phosphate buffer (96 μL, pH 7.0). The reaction mixture was incubated at 37° C. for 2 h and then centrifuged for 3 min. Any precipitate was separated from the supernatant and dissolved in DMF (200 μL). The resulting solution was analyzed by absorption spectroscopy. The experiment was repeated three times.

The target of assay [3] is T1, β-glucosidase from Agrobacterium. In words: Enzyme-triggered oligomerization of bis(indoxyl-glucoside) 46. The protocol:
Oligomerization of 46 was carried out by treatment with β-glucosidase from Agrobacterium (200 nM) in 10 mM phosphate buffer (pH 7) at 37° C. for 2-4 h (Scheme 9). Precipitation occurred during the reaction. After centrifugation, the precipitate was separated from the supernatant, washed with H2O, and dried to afford a blue solid.
The efficacy of the indigogenic oligomerization was examined under a variety of conditions. As shown in entries 1-4 in Table 2, the yield of indigoid dye in the supernatant versus precipitate reversed as the concentration of 46 was decreased from 300 to 10 μM, although the total yields were in the range 17-29%. While the reactions in entries 1-4 were carried out in phosphate buffer containing NaCl (0.05 M), those of entries 5 and 6 (with 300 and 50 μM of 46, respectively) were conducted in NaCl-free phosphate buffer. The use of NaCl-free phosphate buffer facilitated extraction of the indigoid dye in the supernatant for analysis.

[4] abbreviates: indoxyl 100 μM, enzyme 200 nM, 0.05 M phosphate buffer pH 7.0, 2% DMF, 37° C., 2 h, n=3, ε = 1.27 × 10^4 M^-1 cm^-1.
[5] abbreviates: as E4 but ε = 2.6 × 10^4 M^-1 cm^-1 measured for 43.
The mark [6] stands for this setting: indoxyl 1 mM, enzyme 1 unit/mL, acetate buffer pH 5, 5% DMF, 37° C., 16-19 h, ε = 1.27 × 10^4 M^-1 cm^-1 (measured for 4).
[7] abbreviates: as E1 but ε = 2.6 × 10^4 M^-1 cm^-1 measured for 43.
Where [8] appears, read: entry 1: [46] 300 μM, 2 h, phosphate buffer containing NaCl (0.05M).
Where [9] appears, read: entry 2: [46] 100 μM, 3 h, phosphate buffer containing NaCl (0.05M).
Where [10] appears, read: entry 3: [46] 50 μM, 2 h, phosphate buffer containing NaCl (0.05M), repeated three times.
The mark [11] stands for this setting: entry 4: [46] 10 μM, 4 h, phosphate buffer containing NaCl (0.05M).
The mark [12] stands for this setting: entry 5: [46] 300 μM, 3 h, NaCl-free phosphate buffer containing DMF (0.1-0.6%).
[13] abbreviates: entry 6: [46] 50 μM, 3 h, NaCl-free phosphate buffer containing DMF (0.1-0.6%).

Values joined by “and” are separate entries in the source; they are usually repeats but may differ in a detail not shown here. Equal values may be shown once. Marks after values point to notes of the source that are not given here.

For the molecule “5-bromo-4-chloroindoxyl β-glucoside [Indoxyl 42, reference compound]”, the “Yield (%) β-glucosidase from almonds” value in assay [1] (as E1 but ε = 2.00 × 10^4 M^-1 cm^-1 reported for 5,5′-dibromo-4,4′-dichloroindigo) is 74% and 74^e %. Besides, the “Yield (%) rat liver homogenate” value in the assay with rat liver homogenate was 65%. Besides, the “Yield (%) β-glucosidase from Agrobacterium” value in assay [2] (as E4 but ε = 2.00 × 10^4 M^-1 cm^-1 reported for 5,5′-dibromo-4,4′-dichloroindigo) was 116% and 116 ± 8^e %.
As for `COc1nc(Oc2ccc3[nH]cc(O[C@@H]4O[C@H](CO)[C@@H](O)[C@H](O)[C@H]4O)c3c2Br)nc(N2CCOCC2)n1` [Indoxyl 20, 4-Bromo-5-[(4-methoxy-6-morpholino-1,3,5-triazin-2-yl)oxy]-1H-indole-3-yl β-D-glucopyranoside], in the assay on rat liver homogenate, the “Yield (%) rat liver homogenate” value is given as below 5%. Moreover, the “Yield (%) β-glucosidase from Agrobacterium” value in assay [2] (setting [4]) stood at 150 ± 3%.
With `COc1nc(Oc2c(Br)cc3[nH]cc(O[C@@H]4O[C@H](CO)[C@@H](O)[C@H](O)[C@H]4O)c3c2Br)nc(N2CCOCC2)n1` [Indoxyl 21, 4,6-Dibromo-5-[(4-methoxy-6-morpholino-1,3,5-triazin-2-yl)oxy]-1H-indole-3-yl β-D-glucopyranoside], the “Yield (%) rat liver homogenate” value in the assay on rat liver homogenate is listed as below 5%. The “Yield (%) β-glucosidase from Agrobacterium” value in assay [2] (setting [5]) worked out at 31 ± 2%; in assay [2] (setting [4]) it was 63 ± 4%.
For `COC(=O)COc1ccc2[nH]cc(O[C@@H]3O[C@H](CO)[C@@H](O)[C@H](O)[C@H]3O)c2c1` [Indoxyl 22, 5-(Methoxycarbonyl)methoxy-1H-indol-3-yl β-D-glucopyranoside], the “Yield (%) β-glucosidase from almonds” value in assay [1] (setting [6]) is reported as below 1%. Also, the “Yield (%) rat liver homogenate” value with rat liver homogenate is reported as below 5%. Besides, the “Yield (%) β-glucosidase from Agrobacterium” value in assay [2] (setting [4]) was 30 ± 6%.
Consider `COC(=O)COc1ccc2[nH]cc(O[C@@H]3O[C@H](CO)[C@@H](O)[C@H](O)[C@H]3O)c2c1Br` [Indoxyl 23, 4-Bromo-5-(methoxycarbonyl)methoxy-1H-indol-3-yl β-D-glucopyranoside], for which the “Yield (%) β-glucosidase from almonds” value in assay [1] (setting [6]) stood at 68%. Further, in the assay with rat liver homogenate, the “Yield (%) rat liver homogenate” value was below 5%. Besides, the “Yield (%) β-glucosidase from Agrobacterium” value in assay [2] (setting [4]) was found to be 84 ± 4%.
Take `COC(=O)COc1c(Br)cc2[nH]cc(O[C@@H]3O[C@H](CO)[C@@H](O)[C@H](O)[C@H]3O)c2c1Br` [Indoxyl 24, 4,6-Dibromo-5-(methoxycarbonyl)methoxy-1H-indol-3-yl β-D-glucopyranoside]: the “Yield (%) β-glucosidase from almonds” value in assay [1] (setting [7]) was determined as 59%; in assay [1] (setting [6]) it was 122%. In the assay on rat liver homogenate, the “Yield (%) rat liver homogenate” value is below 5%. Further, the “Yield (%) β-glucosidase from Agrobacterium” value in assay [2] (setting [5]) is reported as 102 ± 3%; in assay [2] (setting [4]) it was 209 ± 6%.
Take `C#CCOc1ccc2[nH]cc(O[C@@H]3O[C@H](CO)[C@@H](O)[C@H](O)[C@H]3O)c2c1` [Indoxyl 25, 5-Propargyloxy-1H-indol-3-yl β-D-glucopyranoside]: in assay [1] (setting [6]), the “Yield (%) β-glucosidase from almonds” value was below 5%. For the same molecule, the “Yield (%) rat liver homogenate” value in the assay on rat liver homogenate amounted to 11%. Moreover, in assay [2] (setting [4]), the “Yield (%) β-glucosidase from Agrobacterium” value came to 37 ± 2%.
In the same order, the values of `C#CCOc1ccc2[nH]cc(O[C@@H]3O[C@H](CO)[C@@H](O)[C@H](O)[C@H]3O)c2c1Br` [Indoxyl 26, 4-Bromo-5-propargyloxy-1H-indol-3-yl β-D-glucopyranoside] are 56%, 17% and 79 ± 1%.
Turning to `C#CCOc1c(Br)cc2[nH]cc(O[C@@H]3O[C@H](CO)[C@@H](O)[C@H](O)[C@H]3O)c2c1Br` [Indoxyl 27, 4,6-Dibromo-5-propargyloxy-1H-indol-3-yl β-D-glucopyranoside], the “Yield (%) β-glucosidase from almonds” value in assay [1] (setting [7]) is reported as 51%; in assay [1] (setting [6]), 105%. Also, in the assay on rat liver homogenate, the “Yield (%) rat liver homogenate” value stood at 50%. In addition, the “Yield (%) β-glucosidase from Agrobacterium” value was found to be 89 ± 2% in assay [2] (setting [5]) and 184 ± 3% in assay [2] (setting [4]).
For `OC[C@H]1O[C@@H](Oc2c[nH]c3cc(Br)c(OCC4[C@H]5CCC#CCC[C@@H]45)c(Br)c23)[C@H](O)[C@@H](O)[C@@H]1O` (stereo partly drawn) [Indoxyl 30, 5-{[(1R,8S,9s)-Bicyclo[6.1.0]non-4-yn-9-yl]methoxy}-4,6-dibromo-1H-indole-3-yl β-D-glucopyranoside], the “Yield (%) β-glucosidase from Agrobacterium” value in assay [2] (setting [5]) was 10% and 10 ± 0.4%; in assay [2] (setting [4]), 21 ± 1%.
For the molecule `O=S(=O)([O-])CCC[N+]1(CCCO)CCN(c2nc(OCCOCCOCCOc3c(Br)cc4[nH]cc(O[C@@H]5O[C@H](CO)[C@@H](O)[C@H](O)[C@H]5O)c4c3Br)nc(OCCOCCOCCOc3c(Br)cc4[nH]cc(O[C@@H]5O[C@H](CO)[C@@H](O)[C@H](O)[C@H]5O)c4c3Br)n2)CC1` [Indoxyl 46], the “Total yields of indigoid dye (supernatant plus precipitate)” value in assay [3] (entries 1-4, [46] 300 to 10 μM) is recorded as 17-29%. For the same molecule, the “Yield of indigoid dye (%) precipitate” value in assay [3] (setting [8]) was 11%; in assay [3] (setting [9]) it was 14%; in assay [3] (setting [10]) it was 16 ± 0.6^c %; in assay [3] (setting [11]), 6%; in assay [3] (setting [12]), 13%; in assay [3] (setting [13]) it was 8%. Also, the “Yield of indigoid dye (%) supernatant” value was 6% in assay [3] (setting [8]); 10% in assay [3] (setting [9]); 13 ± 0.4^c % in assay [3] (setting [10]); 22% in assay [3] (setting [11]); 13% in assay [3] (setting [12]); 19% in assay [3] (setting [13]).
